In one series the test system is refractory malignancies. The conditions noted are these: weekly HDPA; cited from earlier work.
The test system of series [1] is MDS. The conditions noted are these: cited from earlier work.
The subject of series [2] is low risk MDS and refractory anemia unresponsive to erythropoietin. Put plainly: Phase 2 trial of high dose pulse administration of calcitriol. It is filed as in vivo, human. On the procedure:
Patients having low risk MDS and refractory anemia unresponsive to erythropoietin were entered into a Phase 2 trial to evaluate the effect of high dose pulse administration of calcitriol. These patients are red blood cell transfusion dependent because of severe anemia. Patients were administered weekly oral calcitriol at a dose of 45 μg for 20 consecutive weeks. The calcitriol was formulated in a composition containing the following excipients with the amount given in approximate percentage by weight: 65% MIGLYOL 812N®, 30% […] 44/14®, 5% vitamin-E TPGS and about 0.05% each of butylated hydroxytoluene (BHT) and butylated hydroxyanisole (BHA).

For series [3] the following is noted: relative to calcitriol; cited from earlier work.
Series [4] relates to MDS. The conditions noted are these: 75 mg/m^2/day subcutaneously for 7 days out of 28; cited from earlier work.
In series [5] the test system is MDS. To be noted: cited from earlier work. This is another data set of the same source.
Setting [6] is: Patient #1, 45 μg oral weekly for 20 weeks.
Setting [7] is: Patient #3, 45 μg oral weekly for 20 weeks.

Read-outs that look alike come from different tables or passages of the source.

We go through 4 compounds from patent US20070027120A1, “Methods of using vitamin D compounds in the treatment of myelodysplastic syndromes” (priority 2002, published 2007).

Consider `C=C1/C(=C/C=C2/CCC[C@@]3(C)C2CC[C@@H]3[C@H](C)CCCC(C)(C)O)C[C@@H](O)C[C@@H]1O` (stereo in doubt) [calcitriol, 1α,25-dihydroxycholecalciferol], for which, in the series on refractory malignancies, the dose-limiting toxicity result was “no dose-limiting toxicity” and the “mean peak calcitriol levels” value is on record as “within the therapeutic range”. Besides, the “dose at which hypercalcemia was induced” value with MDS [1] (daily administration (Koeffler et al.)) is 2 µg/day. The “maximum dose administered without hypercalcemia” value in the series on MDS [1] (subjects with MDS (Mellibovsky et al.)) was 0.75 µg/day. In series [2] (setting [6]), the protocol defined response result is given as “minor response (A minor erythroid responder is a subject with a baseline hemoglobin of less than 11 g/dL who experiences an increase of 1 to 2 g/dL from baseline)” and the “rise in hemoglobin as compared to baseline” value is “more than one”. The “decrease in required red blood cell transfusions as compared to baseline” value in series [2] (Patient #2, 45 μg oral weekly for 20 weeks) was 50%. Besides, in series [2] (setting [7]), the protocol defined response result is “major response (A major erythroid responder is a subject with a baseline hemoglobin of less than 11 g/dL who experiences an increase of greater than or equal to 2 g/dL from the baseline)” and the “rise in hemoglobin as compared to baseline” value was “more than two”. Besides, the calcemic index in series [3] is listed as 1.

`Nc1ncn([C@@H]2O[C@H](CO)[C@@H](O)[C@H]2O)c(=O)n1` [5-azacytidine]: in the series on MDS [4], the “patients with a complete response” value is reported as 7% and the “patients with at least a partial response” value is listed as around 60%.

As to `C=C1/C(=C\C=C2/CCC[C@]3(C)[C@@H]([C@H](C)/C=C/[C@@H](O)C4CC4)CC[C@@H]23)C[C@@H](O)C[C@@H]1O` [calcipotriol], the calcemic index result in series [3] is “about 0.01”.

On to “EPO: erythropoietin, hematopoietic growth factor”, for which the subjects who respond result is reported as “about 40%” with MDS [5] (EPO administered with G-CSF) and “about 20%” in the series with MDS [5] (EPO alone). The rate of responsiveness in the series with MDS [5] (refractory anemia and refractory anemia with ring sideroblasts) was 21%; in the series with MDS [5] (refractory anemia with excess blasts) it was 8%.
